Article PMC4234427 (Journal of Medicinal Chemistry, 2014)

Experiments:
hCB2R [1] = biological target: T1, hCB2R (Homo sapiens, UniProt P34972); experiment: forskolin-stimulated cAMP assay; format: cell-based; conditions: for cAMP (CB2R) EC50/IC50 (nM): EC50: agonist mode, inhibition of forskolin (10 μM) mediated cAMP production
h-CB2R = h-CB2R (Homo sapiens, UniProt P34972); conditions: classification from β-arrestin 2 (and cAMP) assays
hCB2R [2] = biological target: T1, hCB2R; experiment: CB2R competitive radioligand binding assay; conditions: selectivity ratio
[3] = solubility under the cAMP assay test conditions; format: physicochemical; conditions: functional cAMP assay conditions

Sequence of h-CB2R (P34972 whole entry): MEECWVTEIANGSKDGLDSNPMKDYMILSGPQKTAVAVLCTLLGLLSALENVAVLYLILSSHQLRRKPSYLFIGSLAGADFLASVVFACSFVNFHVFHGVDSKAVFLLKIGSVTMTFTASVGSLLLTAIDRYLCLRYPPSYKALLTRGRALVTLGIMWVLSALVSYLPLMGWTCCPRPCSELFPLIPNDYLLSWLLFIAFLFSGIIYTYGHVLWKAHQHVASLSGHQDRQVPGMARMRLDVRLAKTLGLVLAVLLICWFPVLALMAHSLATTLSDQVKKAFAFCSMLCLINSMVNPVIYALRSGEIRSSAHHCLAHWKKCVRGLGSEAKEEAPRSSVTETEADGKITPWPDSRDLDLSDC
T1 sequence (P34972 whole entry): as above

Row | SMILES | functional activity at CB2R (h-CB2R) | Ki(CB1)/Ki(CB2) (hCB2R [2]) | other results
1 | CC1CCC(NC(=O)c2cc3cccnc3n(CCN3CCOCC3)c2=O)CC1 (centres unmarked) [A1] | agonists |  | cAMP (CB2R) EC50/IC50 (nM): EC50 (hCB2R [1]): 28.0 nM
2 | CC1CCC(NC(=O)c2cc3cccnc3n(Cc3ccc(F)cc3)c2=O)CC1 (centres unmarked) [A2] | agonists |  | cAMP (CB2R) EC50/IC50 (nM): EC50 (hCB2R [1]): 29.6 nM
3 | CC1CCC(NC(=O)c2cc3cccnc3n(CCO)c2=O)CC1 (centres unmarked) [Compound 3, 1-(2-Hydroxyethyl)-N-(4-methylcyclohexyl)-2-oxo-1,2-dihydro-1,8-naphthyridine-3-carboxamide] |  | >5 | 
4 | CC1CCC(NC(=O)c2cc3cccnc3n(CCCO)c2=O)CC1 (centres unmarked) [Compound 4, 1-(3-Hydroxypropyl)-N-(4-methylcyclohexyl)-2-oxo-1,2-dihydro-1,8-naphthyridine-3-carboxamide] |  | >77 | 
5 | CC1CCC(NC(=O)c2cc3cccnc3n(CCCCO)c2=O)CC1 (centres unmarked) [Compound 5, 1-(4-Hydroxybutyl)-N-(4-methylcyclohexyl)-2-oxo-1,2-dihydro-1,8-naphthyridine-3-carboxamide] | agonists | >187 | solubility under the test conditions [3]: insoluble
6 | CC1CCC(NC(=O)c2cc3cccnc3n(CCCCCO)c2=O)CC1 (centres unmarked) [Compound 6, 1-(5-Hydroxypentyl)-N-(4-methylcyclohexyl)-2-oxo-1,2-dihydro-1,8-naphthyridine-3-carboxamide] |  | >2778 | 
7 | CC1CCC(NC(=O)c2cc3cccnc3n(CCCCCCO)c2=O)CC1 (centres unmarked) [Compound 7, 1-(6-Hydroxyhexyl)-N-(4-methylcyclohexyl)-2-oxo-1,2-dihydro-1,8-naphthyridine-3-carboxamide] |  | >554 | 
8 | CCOC(=O)CCn1c(=O)c(C(=O)NC2CCC(C)CC2)cc2cccnc21 (centres unmarked) [Compound 8, Ethyl 3-(3-(4-Methylcyclohexylcarbamoyl)-2-oxo-1,8-naphthyridin-1(2H)-yl)propanoate] |  | >57 | 
9 | CCOC(=O)CCCn1c(=O)c(C(=O)NC2CCC(C)CC2)cc2cccnc21 (centres unmarked) [Compound 9, Ethyl 4-(3-(4-Methylcyclohexylcarbamoyl)-2-oxo-1,8-naphthyridin-1(2H)-yl)butanoate] |  | >160 | 
10 | COC(=O)CCCCn1c(=O)c(C(=O)NC2CCC(C)CC2)cc2cccnc21 (centres unmarked) [Compound 10, Methyl 5-(3-(4-Methylcyclohexylcarbamoyl)-2-oxo-1,8-naphthyridin-1(2H)-yl)pentanoate] |  | >369 | 
11 | CC1CCC(NC(=O)c2cc3cccnc3n(CCC(=O)O)c2=O)CC1 (centres unmarked) [Compound 11, 3-(3-(4-Methylcyclohexylcarbamoyl)-2-oxo-1,8-naphthyridin-1(2H)-yl)propanoic Acid] |  | >7 | 
12 | CC1CCC(NC(=O)c2cc3cccnc3n(CCCC(=O)O)c2=O)CC1 (centres unmarked) [Compound 12, 4-(3-(4-Methylcyclohexylcarbamoyl)-2-oxo-1,8-naphthyridin-1(2H)-yl)butanoic Acid] |  | >4 | 
13 | CC1CCC(NC(=O)c2cc3cccnc3n(CCCCC(=O)O)c2=O)CC1 (centres unmarked) [Compound 13, 5-(3-(4-Methylcyclohexylcarbamoyl)-2-oxo-1,8-naphthyridin-1(2H)-yl)pentanoic Acid] |  | >7 | 
14 | CC1CCC(NC(=O)c2cc3cccnc3n(CCCCF)c2=O)CC1 (centres unmarked) [Compound 14, 1-(4-Fluorobutyl)-1,2-dihydro-N-(4-methylcyclohexyl)-2-oxo-1,8-naphthyridine-3-carboxamide] | agonists |  | cAMP (CB2R) EC50/IC50 (nM): EC50 (hCB2R [1]): 20.6 nM
15 | CC1CCC(NC(=O)c2cc3cc(Br)cnc3n(Cc3ccc(F)cc3)c2=O)CC1 (centres unmarked) [Compound 17, 6-Bromo-1-(4-fluorobenzyl)-N-(4-methylcyclohexyl)-2-oxo-1,2-dihydro-1,8-naphthyridine-3-carboxamide] | inverse agonists as well as antagonists |  | solubility under the test conditions [3]: insoluble
16 | CC1CCC(NC(=O)c2cc3cc(Br)cnc3n(CCN3CCOCC3)c2=O)CC1 (centres unmarked) [Compound 18, 6-Bromo-N-(4-methylcyclohexyl)-1-(2-morpholinoethyl)-2-oxo-1,2-dihydro-1,8-naphthyridine-3-carboxamide] | inverse agonists as well as antagonists |  | cAMP (CB2R) EC50/IC50 (nM): IC50 (hCB2R [1]; antagonist mode, inhibition of response to WIN-55,212-2 (30 nM) with forskolin): 59.6 nM
17 | CC1CCC(NC(=O)c2cc3cc(-c4ccc(F)cc4)cnc3n(Cc3ccc(F)cc3)c2=O)CC1 (centres unmarked) [Compound 21, 1-(4-Fluorobenzyl)-6-(4-fluorophenyl)-N-(4-methyl-cyclohexyl)-2-oxo-1,2-dihydro-1,8-naphthyridine-3-carboxamide] |  | >4608 | 
18 | C[C@H]1CC[C@@H](NC(=O)c2cc3cc(-c4ccco4)cnc3n(Cc3ccc(F)cc3)c2=O)CC1 [Compound 22-cis, cis-1-(4-Fluorobenzyl)-6-(furan-2-yl)-N-(4-methylcyclohexyl)-2-oxo-1,2-dihydro-1,8-naphthyridine-3-carboxamide] |  | 15 022 | 
19 | C[C@H]1CC[C@H](NC(=O)c2cc3cc(-c4ccco4)cnc3n(Cc3ccc(F)cc3)c2=O)CC1 [Compound 22-trans, trans-1-(4-Fluorobenzyl)-6-(furan-2-yl)-N-(4-methylcyclohexyl)-2-oxo-1,2-dihydro-1,8-naphthyridine-3-carboxamide] |  | >106 | 
20 | COc1ccc(-c2cnc3c(c2)cc(C(=O)NC2CCC(C)CC2)c(=O)n3CCN2CCOCC2)cc1 (centres unmarked) [Compound 23, 6-(4-Methoxyphenyl)-N-(4-methylcyclohexyl)-1-(2-morpholinoethyl)-2-oxo-1,2-dihydro-1,8-naphthyridine-3-carboxamide] | inverse agonists as well as antagonists | >6802 | solubility under the test conditions [3]: insoluble
